This note sets out measurements from PubChem BioAssay (NCI).

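Assay format: 96-well plates, 48-hour exposure. TGI marks complete inhibition of growth.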 Where only a bound is given, the exact number is not on record here.

One assay concerns SK-MEL-5 melanoma. The assay is described as follows: DTP human tumour cell line panel, 48 h.
In turn, `CCN(CC)CCn1c2cc3c(cc2c(=O)c2cccnc21)OCCO3` had a total growth inhibition concentration (TGI) of over 10 µM.

Another assay concerns SK-OV-3 ovarian. The assay is described as follows: DTP human tumour cell line panel, 48 h.
For the compound `Cc1ccc2c(c1)nc(N)n[n+]2[O-]`, the TGI is over 100 µM.

`Cc1cn(C2CC(N)C(CN)O2)c(=O)[nH]c1=O` (stereo not given) displayed a total growth inhibition concentration (TGI) of over 100 µM.

Compound `Nc1nc2ncc(SCc3ccc(C(=O)NC(CCC(=O)O)C(=O)O)cc3)cc2c(=O)[nH]1` (stereo not given) registered a total growth inhibition concentration (TGI) of over 100 µM.

On to `COc1ccc2c(c1)c1c(n2CCN2CCOCC2)-c2ccccc2CC1`, for which the TGI was over 100 µM.

On to `Clc1nc(Cl)nc(NC23CC4CC(CC(C4)C2)C3)n1`, for which the TGI is over 57.1 µM.

The compound `CCOC(=O)c1cc(=C2\CCN(CC(C)CC)C2=S)/c(=C(/O)CC)[nH]1` (stereo not given) yielded a TGI of 48.4 µM.

As for `OCC1CCCC(n2cnc3c(=S)nc[nH]c32)O1` (stereo not given), the TGI is over 100 µM.

With `COc1cc2oc(-c3ccc(O)cc3)c(OC3OC(C)C(O)C(O)C3O)c(=O)c2c(O)c1OC` (stereo not given), the TGI was over 100 µM.

`CC1(C)CC2(C)CC1CC2O` (stereo not given) gave a TGI of over 100 µM.

For `Clc1cc(N/N=C(/c2ccccc2)c2ncccn2)ncn1`, the TGI worked out at 35.7 µM.

As for `N#CC1=C(N)OC2=C(CSc3ccccc32)C1c1ccc(Br)cc1` (stereo not given), the TGI came to 27 µM.

Consider `O=c1oc2ccccc2c(O)c1C(c1cc(OCc2ccccc2)cc(OCc2ccccc2)c1)c1c(O)c2ccccc2oc1=O`, for which the TGI came to 20.1 µM.

`Cc1c(/C=N\NC(=S)N2CCN(C(=S)N/N=C\c3c(C)n(C)n(-c4ccccc4)c3=O)CC2)c(=O)n(-c2ccccc2)n1C` gave a total growth inhibition concentration (TGI) of over 100 µM.

Turning to `Cc1cc2c(c(C(=O)NCCC(=O)O)c1)Oc1c(cc(C)cc1C(=O)NCCC(=O)O)S2`, the total growth inhibition concentration (TGI) was over 100 µM.

Regarding `CCN(CC)CCn1c2cc3c(cc2c(=O)c2cccnc21)OCCO3`, the concentration for total growth inhibition (TGI) is over 10 µM.

The subject of a further assay is SR leukemia. Kind of assay: DTP human tumour cell line panel, 48 h.
`Cc1ccc2c(c1)nc(N)n[n+]2[O-]` gave a TGI of over 100 µM.

For the compound `Cc1cn(C2CC(N)C(CN)O2)c(=O)[nH]c1=O` (stereo not given), the TGI is over 100 µM.

`Nc1nc2ncc(SCc3ccc(C(=O)NC(CCC(=O)O)C(=O)O)cc3)cc2c(=O)[nH]1` (stereo not given) showed a total growth inhibition concentration (TGI) of over 100 µM.

In the case of `COc1ccc2c(c1)c1c(n2CCN2CCOCC2)-c2ccccc2CC1`, the concentration for total growth inhibition (TGI) is 43.7 µM.

Take `CCOC(=O)c1cc(C2(O)CCN(Cc3ccccc3)C2=O)c(-c2cc(C)no2)[nH]1` (stereo not given): the concentration for total growth inhibition (TGI) was over 100 µM.

In the case of `Clc1nc(Cl)nc(NC23CC4CC(CC(C4)C2)C3)n1`, the total growth inhibition concentration (TGI) came to 47.7 µM.

Regarding `CCOC(=O)c1cc(=C2\CCN(CC(C)CC)C2=S)/c(=C(/O)CC)[nH]1` (stereo not given), the concentration for total growth inhibition (TGI) was determined as 26.3 µM.

Take `OCC1CCCC(n2cnc3c(=S)nc[nH]c32)O1` (stereo not given): the TGI is over 100 µM.

Compound `COc1cc2oc(-c3ccc(O)cc3)c(OC3OC(C)C(O)C(O)C3O)c(=O)c2c(O)c1OC` (stereo not given) displayed a TGI of over 100 µM.

As to `CC1(C)CC2(C)CC1CC2O` (stereo not given), the TGI is over 100 µM.

Consider `Clc1cc(N/N=C(/c2ccccc2)c2ncccn2)ncn1`, for which the TGI is over 100 µM.

The compound `N#CC1=C(N)OC2=C(CSc3ccccc32)C1c1ccc(Br)cc1` (stereo not given) yielded a TGI of 10.3 µM.

The compound `O=C1CC(C(O)CO)CC(=O)N1` (stereo not given) showed a TGI of over 100 µM.

`Cc1c(Cl)ccc2c(=O)c3cccc(CC(=O)O)c3oc12`: the concentration for total growth inhibition (TGI) is over 100 µM.

The compound `O=c1oc2ccccc2c(O)c1C(c1cc(OCc2ccccc2)cc(OCc2ccccc2)c1)c1c(O)c2ccccc2oc1=O` gave a total growth inhibition concentration (TGI) of 15 µM.

For the compound `Cc1c(/C=N\NC(=S)N2CCN(C(=S)N/N=C\c3c(C)n(C)n(-c4ccccc4)c3=O)CC2)c(=O)n(-c2ccccc2)n1C`, the TGI was over 100 µM.

`Cc1cc2c(c(C(=O)NCCC(=O)O)c1)Oc1c(cc(C)cc1C(=O)NCCC(=O)O)S2`: the total growth inhibition concentration (TGI) is over 100 µM.

`CCN(CC)CCn1c2cc3c(cc2c(=O)c2cccnc21)OCCO3` gave a TGI of over 10 µM.

For the next assay, the system named is UACC-62 melanoma. The assay is described as follows: DTP human tumour cell line panel, 48 h.
`Cc1ccc2c(c1)nc(N)n[n+]2[O-]` yielded a TGI of over 100 µM.

The compound `Cc1cn(C2CC(N)C(CN)O2)c(=O)[nH]c1=O` (stereo not given) returned a total growth inhibition concentration (TGI) of over 100 µM.

`Nc1nc2ncc(SCc3ccc(C(=O)NC(CCC(=O)O)C(=O)O)cc3)cc2c(=O)[nH]1` (stereo not given): the TGI was over 100 µM.

Regarding `COc1ccc2c(c1)c1c(n2CCN2CCOCC2)-c2ccccc2CC1`, the TGI was over 100 µM.

For the compound `CCOC(=O)c1cc(C2(O)CCN(Cc3ccccc3)C2=O)c(-c2cc(C)no2)[nH]1` (stereo not given), the total growth inhibition concentration (TGI) is over 100 µM.

As to `Clc1nc(Cl)nc(NC23CC4CC(CC(C4)C2)C3)n1`, the TGI is 35.1 µM.

As for `CCOC(=O)c1cc(=C2\CCN(CC(C)CC)C2=S)/c(=C(/O)CC)[nH]1` (stereo not given), the total growth inhibition concentration (TGI) came to 30.8 µM.

`OCC1CCCC(n2cnc3c(=S)nc[nH]c32)O1` (stereo not given): the TGI was over 100 µM.

`COc1cc2oc(-c3ccc(O)cc3)c(OC3OC(C)C(O)C(O)C3O)c(=O)c2c(O)c1OC` (stereo not given) returned a TGI of over 100 µM.

Turning to `CC1(C)CC2(C)CC1CC2O` (stereo not given), the TGI was over 100 µM.

As to `Clc1cc(N/N=C(/c2ccccc2)c2ncccn2)ncn1`, the TGI is over 100 µM.

Take `N#CC1=C(N)OC2=C(CSc3ccccc32)C1c1ccc(Br)cc1` (stereo not given): the TGI stood at 21.8 µM.

On to `O=c1oc2ccccc2c(O)c1C(c1cc(OCc2ccccc2)cc(OCc2ccccc2)c1)c1c(O)c2ccccc2oc1=O`, for which the concentration for total growth inhibition (TGI) was 15.7 µM.

For the compound `Cc1c(/C=N\NC(=S)N2CCN(C(=S)N/N=C\c3c(C)n(C)n(-c4ccccc4)c3=O)CC2)c(=O)n(-c2ccccc2)n1C`, the TGI is over 100 µM.

As for `Cc1cc2c(c(C(=O)NCCC(=O)O)c1)Oc1c(cc(C)cc1C(=O)NCCC(=O)O)S2`, the total growth inhibition concentration (TGI) was over 100 µM.

In turn, `CCN(CC)CCn1c2cc3c(cc2c(=O)c2cccnc21)OCCO3` had a TGI of over 10 µM.

By TGI is commonly meant the concentration giving total growth inhibition. Low readings indicate greater sensitivity of the cells, high ones lower sensitivity of the cells.
